According to patent US10477864B2, “Microbiocidal quinoline (thio)carboxamide derivatives” (priority 2016, dated 2019):

Experiments:
[1] = tested on: Botryotinia fuckeliana (Botrytis cinerea); experiment: Botryotinia fuckeliana (Botrytis cinerea) / liquid culture (gray mould); assay type: cell-based; details: 72 h, read-out: control of Botryotinia fuckeliana
Fusarium culmorum [2] = experiment: microbe, parasite or virus in culture; assay type: cell-based; details: read-out: control of Fusarium culmorum
Fusarium culmorum [3] = experiment: whole plant or invertebrate; assay type: in vivo; details: in Triticum aestivum, read-out: control of Fusarium culmorum
[4] = tested on: Glomerella lagenarium (Colletotrichum lagenarium); experiment: Glomerella lagenarium (Colletotrichum lagenarium) / liquid culture (anthracnose); assay type: cell-based; details: Colletotrichum orbiculare; read-out: control of Glomerella lagenarium

CC(C)(Cc1ccccc1)NC(=O)c1cnc2c(F)cccc2c1 [Compound E-11, N-(1,1-dimethyl-2-phenyl-ethyl)-8-fluoro-quinoline-3-carboxamide]
≥ 80%: inhibition of growth at 200 ppm [1] | inhibition of growth at 200 ppm (Fusarium culmorum [2]) | pest or weed control at 200 ppm (Fusarium culmorum [3])

CC(C)CC(C)(Cc1ccccc1)NC(=O)c1cc2ccccc2[n+]([O-])c1 (stereo not drawn) [Compound E-41, N-(1-benzyl-1,3-dimethyl-butyl)-1-oxido-quinolin-1-ium-3-carboxamide]
≥ 80%: inhibition of growth at 200 ppm [1] | inhibition of growth at 200 ppm (Fusarium culmorum [2])

Cc1ccc2ncc(C(=O)NC(C)(Cc3ccccc3)CC(C)C)cc2c1 (stereo not drawn) [Compound E-71, N-(1-benzyl-1,3-dimethyl-butyl)-6-methyl-quinoline-3-carboxamide]
≥ 80%: inhibition of growth at 200 ppm [1] | inhibition of growth at 200 ppm (Fusarium culmorum [2]) | pest or weed control at 200 ppm (Fusarium culmorum [3])

Cc1ccc2cc(C(=O)NC(C)(Cc3ccccc3)CC(C)C)cnc2c1 (stereo not drawn) [Compound E-72, N-(1-benzyl-1,3-dimethyl-butyl)-7-methyl-quinoline-3-carboxamide]
≥ 80%: inhibition of growth at 200 ppm [1] | inhibition of growth at 200 ppm (Fusarium culmorum [2]) | pest or weed control at 200 ppm (Fusarium culmorum [3])

CC(C)CC(C)(Cc1ccccc1)NC(=O)c1cnc2ccc(F)cc2c1 (stereo not drawn) [Compound E-73, N-(1-benzyl-1,3-dimethyl-butyl)-6-fluoro-quinoline-3-carboxamide]
≥ 80%: inhibition of growth at 200 ppm [1] | inhibition of growth at 200 ppm (Fusarium culmorum [2])

CC(C)CC(C)(Cc1ccccc1)NC(=O)c1cnc2cccc(F)c2c1 (stereo not drawn) [Compound E-74, N-(1-benzyl-1,3-dimethyl-butyl)-5-fluoro-quinoline-3-carboxamide]
≥ 80%: inhibition of growth at 200 ppm [1] | inhibition of growth at 200 ppm (Fusarium culmorum [2]) | pest or weed control at 200 ppm (Fusarium culmorum [3])

COc1cccc2ncc(C(=O)NC(C)(Cc3ccccc3)CC(C)C)cc12 (stereo not drawn) [Compound E-75, N-(1-benzyl-1,3-dimethyl-butyl)-5-methoxy-quinoline-3-carboxamide]
≥ 80%: inhibition of growth at 200 ppm [1] | inhibition of growth at 200 ppm (Fusarium culmorum [2]) | pest or weed control at 200 ppm (Fusarium culmorum [3])

CC(C)CC(C)(Cc1ccccc1)NC(=O)c1cnc2ccc(O)cc2c1 (stereo not drawn) [Compound E-76, N-(1-benzyl-1,3-dimethyl-butyl)-6-hydroxy-quinoline-3-carboxamide]
≥ 80%: inhibition of growth at 200 ppm [1] | inhibition of growth at 200 ppm (Fusarium culmorum [2]) | pest or weed control at 200 ppm (Fusarium culmorum [3])

Cc1ccc2ncc(C(=O)NC(C)(Cc3ccccc3)CC(F)(F)F)cc2c1 (stereo not drawn) [Compound E-77, N-(1-benzyl-3,3,3-trifluoro-1-methyl-propyl)-6-methyl-quinoline-3-carboxamide]
≥ 80%: inhibition of growth at 200 ppm [1] | inhibition of growth at 200 ppm (Fusarium culmorum [2]) | pest or weed control at 200 ppm (Fusarium culmorum [3])

CC(Cc1ccccc1)(CC(F)(F)F)NC(=O)c1cnc2ccc(Cl)cc2c1 (stereo not drawn) [Compound E-78, N-(1-benzyl-3,3,3-trifluoro-1-methyl-propyl)-6-chloro-quinoline-3-carboxamide]
≥ 80%: inhibition of growth at 200 ppm (Fusarium culmorum [2])

Cc1ccc2cc(C(=O)NC(C)(Cc3ccccc3)CC(F)(F)F)cnc2c1 (stereo not drawn) [Compound E-79, N-(1-benzyl-3,3,3-trifluoro-1-methyl-propyl)-7-methyl-quinoline-3-carboxamide]
≥ 80%: inhibition of growth at 200 ppm [1] | inhibition of growth at 200 ppm (Fusarium culmorum [2]) | pest or weed control at 200 ppm (Fusarium culmorum [3]) | inhibition of growth at 200 ppm [4]

CC(Cc1ccccc1)(CC(F)(F)F)NC(=O)c1cnc2cccc(F)c2c1 (stereo not drawn) [Compound E-80, N-(1-benzyl-3,3,3-trifluoro-1-methyl-propyl)-5-fluoro-quinoline-3-carboxamide]
≥ 80%: inhibition of growth at 200 ppm [1] | inhibition of growth at 200 ppm (Fusarium culmorum [2]) | pest or weed control at 200 ppm (Fusarium culmorum [3])

COc1cccc2ncc(C(=O)NC(C)(Cc3ccccc3)CC(F)(F)F)cc12 (stereo not drawn) [Compound E-81, N-(1-benzyl-3,3,3-trifluoro-1-methyl-propyl)-5-methoxy-quinoline-3-carboxamide]
≥ 80%: inhibition of growth at 200 ppm [1] | inhibition of growth at 200 ppm (Fusarium culmorum [2]) | pest or weed control at 200 ppm (Fusarium culmorum [3])

CC(Cc1ccccc1)(CC(F)(F)F)NC(=O)c1cnc2ccc(O)cc2c1 (stereo not drawn) [Compound E-82, N-(1-benzyl-3,3,3-trifluoro-1-methyl-propyl)-6-hydroxy-quinoline-3-carboxamide]
≥ 80%: inhibition of growth at 200 ppm [1] | inhibition of growth at 200 ppm (Fusarium culmorum [2]) | pest or weed control at 200 ppm (Fusarium culmorum [3])

CC(Cc1ccccc1)(CC(F)(F)F)NC(=O)c1cnc2ccc(F)cc2c1 (stereo not drawn) [Compound E-84, N-(1-benzyl-3,3,3-trifluoro-1-methyl-propyl)-6-fluoro-quinoline-3-carboxamide]
≥ 80%: inhibition of growth at 200 ppm [1] | inhibition of growth at 200 ppm (Fusarium culmorum [2]) | pest or weed control at 200 ppm (Fusarium culmorum [3])

Cc1nc2c(F)cccc2cc1C(=O)NC(C)(Cc1ccccc1)CC(F)(F)F (stereo not drawn) [Compound E-89, N-(1-benzyl-3,3,3-trifluoro-1-methyl-propyl)-8-fluoro-2-methyl-quinoline-3-carboxamide]
≥ 80%: inhibition of growth at 200 ppm [1] | inhibition of growth at 200 ppm (Fusarium culmorum [2]) | pest or weed control at 200 ppm (Fusarium culmorum [3]) | inhibition of growth at 200 ppm [4]

CCCC(Cc1ccccc1)(NC(=O)c1cnc2c(F)cccc2c1)C(F)(F)F (stereo not drawn) [Compound E-91, N-[1-benzyl-1-(trifluoromethyl)butyl]-8-fluoro-quinoline-3-carboxamide]
≥ 80%: inhibition of growth at 200 ppm [1] | inhibition of growth at 200 ppm (Fusarium culmorum [2]) | pest or weed control at 200 ppm (Fusarium culmorum [3]) | inhibition of growth at 200 ppm [4]

CC(Cc1ccccc1)(CC(F)F)NC(=O)c1cnc2c(F)cccc2c1 (stereo not drawn) [Compound E-95, N-(1-benzyl-3,3-difluoro-1-methyl-propyl)-8-fluoro-quinoline-3-carboxamide]
≥ 80%: inhibition of growth at 200 ppm [1] | inhibition of growth at 200 ppm (Fusarium culmorum [2]) | pest or weed control at 200 ppm (Fusarium culmorum [3]) | inhibition of growth at 200 ppm [4]

CC(Cc1ccccc1)(CC(F)(F)F)NC(=O)c1cnc2c(F)cccc2c1Cl (stereo not drawn) [Compound E-96, N-(1-benzyl-3,3,3-trifluoro-1-methyl-propyl)-4-chloro-8-fluoro-quinoline-3-carboxamide]
≥ 80%: inhibition of growth at 200 ppm [1] | inhibition of growth at 200 ppm (Fusarium culmorum [2]) | pest or weed control at 200 ppm (Fusarium culmorum [3]) | inhibition of growth at 200 ppm [4]

Cc1c(C(=O)NC(C)(Cc2ccccc2)CC(C)C)cnc2c(C#N)cccc12 (stereo not drawn) [Compound E-109, N-(1-benzyl-1,3-dimethyl-butyl)-8-cyano-4-methyl-quinoline-3-carboxamide]
≥ 80%: inhibition of growth at 200 ppm [1] | inhibition of growth at 200 ppm (Fusarium culmorum [2]) | pest or weed control at 200 ppm (Fusarium culmorum [3])

CC(CCO)(Cc1ccccc1)NC(=O)c1cnc2c(F)cccc2c1 (stereo not drawn) [Compound E-119, N-(1-benzyl-3-hydroxy-1-methyl-propyl)-8-fluoro-quinoline-3-carboxamide]
≥ 80%: inhibition of growth at 200 ppm [1] | inhibition of growth at 200 ppm (Fusarium culmorum [2])

CC(C=O)(Cc1ccccc1)NC(=O)c1cnc2c(F)cccc2c1 (stereo not drawn) [Compound E-120, N-(1-benzyl-1-methyl-2-oxo-ethyl)-8-fluoro-quinoline-3-carboxamide]
≥ 80%: inhibition of growth at 200 ppm (Fusarium culmorum [2])

C=C(C)CC(C)(Cc1ccccc1)NC(=O)c1cc2cccc(F)c2nc1C (stereo not drawn) [Compound E-124, N-(1-benzyl-1,3-dimethyl-but-3-enyl)-8-fluoro-2-methyl-quinoline-3-carboxamide]
≥ 80%: inhibition of growth at 200 ppm [1] | inhibition of growth at 200 ppm (Fusarium culmorum [2])

CC(C)CC(C)(Cc1ccccc1)NC(=O)c1cc2cccc(F)c2nc1F (stereo not drawn) [Compound E-125, N-(1-benzyl-1,3-dimethyl-butyl)-2,8-difluoro-quinoline-3-carboxamide]
≥ 80%: inhibition of growth at 200 ppm [1] | inhibition of growth at 200 ppm (Fusarium culmorum [2]) | pest or weed control at 200 ppm (Fusarium culmorum [3]) | inhibition of growth at 200 ppm [4]

C[C@](Cc1ccccc1)(CC(F)(F)F)NC(=O)c1cnc2c(F)cccc2c1 [Compound F-11, N-[(1S)-1-benzyl-3,3,3-trifluoro-1-methyl-propyl]-8-fluoro-quinoline-3-carboxamide]
≥ 80%: inhibition of growth at 200 ppm [1] | inhibition of growth at 200 ppm (Fusarium culmorum [2]) | pest or weed control at 200 ppm (Fusarium culmorum [3]) | inhibition of growth at 200 ppm [4]

C[C@@](Cc1ccccc1)(CC(F)(F)F)NC(=O)c1cnc2c(F)cccc2c1 [Compound F-12, N-[(1R)-1-benzyl-3,3,3-trifluoro-1-methyl-propyl]-8-fluoro-quinoline-3-carboxamide]
≥ 80%: inhibition of growth at 200 ppm [1] | inhibition of growth at 200 ppm (Fusarium culmorum [2]) | pest or weed control at 200 ppm (Fusarium culmorum [3]) | inhibition of growth at 200 ppm [4]

CC(C)C[C@@](C)(Cc1ccccc1)NC(=O)c1cnc2c(F)c(F)ccc2c1 [Compound F-22, N-[(1S)-1-benzyl-1,3-dimethyl-butyl]-7,8-difluoro-quinoline-3-carboxamide]
≥ 80%: inhibition of growth at 200 ppm [1] | inhibition of growth at 200 ppm (Fusarium culmorum [2]) | inhibition of growth at 200 ppm [4]

Cc1nc2c(F)cccc2cc1C(=O)N[C@](C)(Cc1ccccc1)CC(F)(F)F [Compound F-34, N-[(1R)-1-benzyl-3,3,3-trifluoro-1-methyl-propyl]-8-fluoro-2-methyl-quinoline-3-carboxamide]
≥ 80%: inhibition of growth at 200 ppm [1] | inhibition of growth at 200 ppm (Fusarium culmorum [2]) | inhibition of growth at 200 ppm [4]
